# Assay results as given in patent US11155551B2, “Nicotinic acetylcholine receptor silent agonists” (University of Florida Research Foundation, Inc., priority 2015, dated 2021).
# Key:
# human α7 nAChR = target: T1, human α7 nAChR (Homo sapiens, UniProt P36544); assay: Two-electrode voltage clamping of human α7 nAChR expressed in Xenopus oocytes (net-charge / peak current relative to 60 μM ACh); format: cell-based; details: for Potentiated response: 30 μM test compound + 10 μM PNU-120596 co-application; for Potentiated response / Relative response: relative to 60 μM ACh control, mean ± SEM, N ≥ 4; for Relative response: net-charge response to 30 μM test compound alone; for functional classification at α7 nAChR: 30 μM alone and with 10 μM PNU-120596, partial agonist = net charge > 1/10th ACh control; for PNU Response: 30 μM compound + 10 μM PNU-120596, relative to 60 μM ACh controls (n ≥ 4); for Net Charge / Peak current: 30 μM compound alone, relative to 60 μM ACh controls (n ≥ 4); for Ratio (peak current to net charge): 30 μM, normalized peak current / normalized net charge; for Estimated Rank efficacy / Estimated Rank potency: rank among six partial agonists; for Estimated Rank potency: from peak-current-to-net-charge ratio; for PAM-dependent currents relative to ACh: co-application with PNU-120596, meta-substituted series; for PAM-dependent response compared to the parent diEPP: co-application with PNU-120596
# T1 construct: expressed in transfected cells; host or cells: Xenopus oocytes
# Description: Electrophysiology: The panel of compounds synthesized was assayed using human α7 nAChR expressed in Xenopus oocytes and two-electrode voltage clamping. The partial agonism activity was evaluated, quantified as net-charge for 30 μM applications of compounds, measured relative to the control response to applications of 60 μM ACh. The induction of PAM-sensitive desensitization was detected as the net-charge responses when compounds were co-applied with the PAM PNU-120596 (30 μM compound+10 μM PNU-120596), measured relative to responses to 60 μM ACh applied alone. […] It is a unique property of α7 orthosteric agonist-induced currents that they vary systematically in the relationship between peak current and net charge as a function of the effective concentration applied (Papke & Papke (2002) Br. J. Pharm. 137: 49-61; Papke & Thinschmidt (1998) Neurosci. Let. 256: 163-166). This was due to the concentration-dependent desensitization of the receptors, which is likely to be associated with high levels of agonist binding site occupancy (Williams et al., (2011) J. Gen. Physiol. 137: 369-384) and is observed even when agonists are rapidly applied to small cells (Williams et al., (2012) Mol. Pharmacol. 82: 746-759) or acutely dissociated neurons (Uteshev et al., (2002) Brain Res. 948: 33-46). The control ACh concentration used for these experiments is roughly the EC80 for the net-charge responses.
# By normalizing both the peak currents and net-charge measurements of the drug responses at the probe concentration of 30 μM (FIG. 3B) to those of the ACh control, the relationship between the probe concentration and the EC for each of the drugs was estimated (Papke, R. L. (2005) Life Sci.). At a concentration where the ratio of the normalized measures equaled one, the drug would be at the same effective concentration as 60 μM ACh.
# Electrophysiology: New compounds were assayed for activity with the α7 nAChR expressed in Xenopus oocytes using two-electrode voltage clamping as previously described in Papke et al., (2014) J. Pharmacol. Experimental Therap. 350: 665-680, incorporated herein by reference in its entirety, and compared to responses evoked by 60 μM Ach (FIGS. 5 and 6). The compound set was assayed at a concentration of 30 μM to provide a standard comparison benchmark.
# Based on earlier experience this concentration is high enough to provide an observable response and low enough to avoid possible complications such as channel block. The net-charge response for each compound application is reported relative to those for ACh control applications. Data were expressed as the mean ±S.E.M. from at least four oocytes for each experiment and were plotted by Kaleidagraph (Abelbeck Software, Reading, Pa.).
# T1 sequence (P36544 23-502): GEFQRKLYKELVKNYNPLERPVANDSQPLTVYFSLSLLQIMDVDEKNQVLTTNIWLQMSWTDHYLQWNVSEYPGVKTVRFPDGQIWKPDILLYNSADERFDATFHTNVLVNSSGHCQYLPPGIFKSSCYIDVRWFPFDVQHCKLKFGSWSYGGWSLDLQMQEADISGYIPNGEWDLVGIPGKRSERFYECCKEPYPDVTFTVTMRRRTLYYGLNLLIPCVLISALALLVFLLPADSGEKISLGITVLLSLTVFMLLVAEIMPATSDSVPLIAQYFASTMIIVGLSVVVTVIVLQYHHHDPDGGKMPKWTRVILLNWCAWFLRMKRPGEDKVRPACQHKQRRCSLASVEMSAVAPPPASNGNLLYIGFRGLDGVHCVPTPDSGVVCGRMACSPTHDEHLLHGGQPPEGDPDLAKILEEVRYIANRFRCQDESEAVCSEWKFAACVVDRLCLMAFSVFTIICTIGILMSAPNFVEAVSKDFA
structure (smiles),measurement,setting,value
CCN1CCN(c2ccc(OC)cc2)CC1,melting point,,56.6 to 57.8 °C
CCN1CCN(c2cccc(O)c2)CC1,melting point,,150.3 to 151.6 °C
CCN1CCN(c2ccc3ccccc3c2)CC1,melting point,,69.1 to 70 °C
CCN1CCN(c2ccc(Br)cc2)CC1,melting point,,85 to 85.5 °C
"CCN1CCN(c2cccc(Cl)c2)CC1 [Compound 1f, 1-(3-chlorophenyl)-4-ethylpiperazine]",Potentiated response,human α7 nAChR,0.1 ± 0.1
same,Relative response,human α7 nAChR,0.009 ± 0.008
"CCN1CCN(c2cccc(Br)c2)CC1 [Compound 1p, 1-(3-bromophenyl)-4-ethylpiperazine]",functional classification at α7 nAChR,human α7 nAChR,modest silent agonism
same,Potentiated response,human α7 nAChR,6.9±2.4
same,response relative to diEPP,human α7 nAChR; PAM co-application response,approximately 5 fold
same,response relative to its corresponding quaternary salt 2p,human α7 nAChR; PAM co-application response,0.69 fold
same,Relative response,human α7 nAChR,0.000 ± 0.003
"CC[N+]1(CC)CCN(c2ccc(C#N)cc2)CC1.[I-] [Compound 2b, 4-(4-cyanophenyl)-1,1-diethylpiperazin-1-ium iodide]",functional classification at α7 nAChR,human α7 nAChR,partial agonists
same,PNU Response,human α7 nAChR,68 ± 25
same,Net Charge,human α7 nAChR,0.23 ± 0.02
same,Peak current,human α7 nAChR,0.10 ± 0.01
same,Potentiated response,human α7 nAChR,68.0 ± 25.4
same,Ratio (peak current to net charge),human α7 nAChR,0.43
same,Relative response,human α7 nAChR,0.234 ± 0.024
same,Estimated Rank efficacy,human α7 nAChR,3
same,Estimated Rank potency,human α7 nAChR,6
"CC[N+]1(CC)CCN(c2ccc(OC)cc2)CC1.[I-] [Compound 2c, 1,1-diethyl-4-(4-methoxyphenyl)piperazin-1-ium iodide]",functional classification at α7 nAChR,human α7 nAChR,candidate silent agonists
same,Potentiated response,human α7 nAChR,11.6 ± 0.3
same,Relative response,human α7 nAChR,0.063 ± 0.014
"CC[N+]1(CC)CCN(c2ccc(Cl)cc2)CC1.[I-] [Compound 2e, 4-(4-chlorophenyl)-1,1-diethylpiperazin-1-ium iodide]",functional classification at α7 nAChR,human α7 nAChR,partial agonists
same,PNU Response,human α7 nAChR,18 ± 6
same,Net Charge,human α7 nAChR,0.23 ± 0.05
same,Peak current,human α7 nAChR,0.17 ± 0.02
same,Potentiated response,human α7 nAChR,18.3 ± 6.2
same,Ratio (peak current to net charge),human α7 nAChR,0.71
same,Relative response,human α7 nAChR,0.234 ± 0.048
same,Estimated Rank efficacy,human α7 nAChR,5
same,Estimated Rank potency,human α7 nAChR,1
"CC[N+]1(CC)CCN(c2cccc(Cl)c2)CC1.[I-] [Compound 2f, 4-(3-chlorophenyl)-1,1-diethylpiperazin-1-ium iodide]",functional classification at α7 nAChR,human α7 nAChR,candidate silent agonists
same,Potentiated response,human α7 nAChR,4.2 ± 1.0
same,PAM-dependent currents relative to ACh,human α7 nAChR,4.23 fold
same,Relative response,human α7 nAChR,0.020 ± 0.003
"CC[N+]1(CC)CCN(c2ccccc2C)CC1.[I-] [Compound 2h, 1,1-diethyl-4-o-tolylpiperazin-1-ium iodide]",functional classification at α7 nAChR,human α7 nAChR,partial agonists
same,PNU Response,human α7 nAChR,16 ± 2
same,Net Charge,human α7 nAChR,0.32 ± 0.07
same,Peak current,human α7 nAChR,0.15 ± 0.02
same,Potentiated response,human α7 nAChR,16.4 ± 2.4
same,Ratio (peak current to net charge),human α7 nAChR,0.46
same,Relative response,human α7 nAChR,0.319 ± 0.066
same,Estimated Rank efficacy,human α7 nAChR,1
same,Estimated Rank potency,human α7 nAChR,5
"CC[N+]1(CC)CCN(c2cccc(C#N)c2)CC1.[I-] [Compound 2i, 4-(3-cyanophenyl)-1,1-diethylpiperazin-1-ium iodide]",functional classification at α7 nAChR,human α7 nAChR,no significant activity as either partial agonists or as silent agonists
same,Potentiated response,human α7 nAChR,1.5 ± 0.7
same,PAM-dependent response compared to the parent diEPP,human α7 nAChR,equivalent
same,Relative response,human α7 nAChR,0.022 ± 0.024
"CC[N+]1(CC)CCN(c2ccccc2Cl)CC1.[I-] [Compound 2j, 4-(2-chlorophenyl)-1,1-diethylpiperazin-1-ium iodide]",functional classification at α7 nAChR,human α7 nAChR,partial agonists
same,PNU Response,human α7 nAChR,37 ± 6
same,Net Charge,human α7 nAChR,0.37 ± 0.05
same,Peak current,human α7 nAChR,0.23 ± 0.03
same,Potentiated response,human α7 nAChR,36.6 ± 6.1
same,Ratio (peak current to net charge),human α7 nAChR,0.63
same,Relative response,human α7 nAChR,0.367 ± 0.054
same,Estimated Rank efficacy,human α7 nAChR,2
same,Estimated Rank potency,human α7 nAChR,4
"CC[N+]1(CC)CCN(c2cccc(O)c2)CC1.[I-] [Compound 2k, 1,1-diethyl-4-(3-hydroxyphenyl)piperazin-1-ium iodide]",functional classification at α7 nAChR,human α7 nAChR,partial agonists
same,PNU Response,human α7 nAChR,31 ± 5
same,Net Charge,human α7 nAChR,0.28 ± 0.02
same,Peak current,human α7 nAChR,0.19 ± 0.02
same,Potentiated response,human α7 nAChR,31.4 ± 5.1
same,Ratio (peak current to net charge),human α7 nAChR,0.67
same,Relative response,human α7 nAChR,0.283 ± 0.013
same,Estimated Rank efficacy,human α7 nAChR,4
same,Estimated Rank potency,human α7 nAChR,3
"CC[N+]1(CC)CCN(c2ccc(OC)cc2OC)CC1.[I-] [Compound 2l, 4-(2,4-dimethoxyphenyl)-1,1-diethylpiperazin-1-ium iodide]",functional classification at α7 nAChR,human α7 nAChR,not a partial agonist
same,Potentiated response,human α7 nAChR,1.1 ± 0.1
same,Relative response,human α7 nAChR,0.014 ± 0.009
"CC[N+]1(CC)CCN(c2ccc3ccccc3c2)CC1.[I-] [Compound 2m, 1,1-diethyl-4-(naphthalen-2-yl)piperazin-1-ium iodide]",functional classification at α7 nAChR,human α7 nAChR,partial agonist
same,PNU Response,human α7 nAChR,16 ± 2
same,Net Charge,human α7 nAChR,0.14 ± 0.02
same,Peak current,human α7 nAChR,0.10 ± 0.02
same,Potentiated response,human α7 nAChR,15.9 ± 2.3
same,Ratio (peak current to net charge),human α7 nAChR,0.71
same,Relative response,human α7 nAChR,0.143 ± 0.018
same,Estimated Rank efficacy,human α7 nAChR,6
same,Estimated Rank potency,human α7 nAChR,1
"CC[N+]1(CC)CCN(c2cccc(C(F)(F)F)c2)CC1.[I-] [Compound 2o, 1,1-diethyl-4-(3-(trifluoromethyl)phenyl)piperazin-1-ium iodide]",functional classification at α7 nAChR,human α7 nAChR,candidate silent agonists
same,Potentiated response,human α7 nAChR,3.1 ± 2.1
same,Relative response,human α7 nAChR,0.000 ± 0.002
"CC[N+]1(CC)CCN(c2ccc(Br)cc2)CC1.[I-] [Compound 2q, 4-(4-bromophenyl)-1,1-diethylpiperazin-1-ium iodide]",Potentiated response,human α7 nAChR,12.3 ± 3.5
same,Relative response,human α7 nAChR,0.270 ± 0.017
"CC[N+]1(CC)CCN(c2ccc(F)cc2)CC1.[I-] [Compound 2r, 1,1-diethyl-4-(4-fluorophenyl)piperazin-1-ium iodide]",functional classification at α7 nAChR,human α7 nAChR,candidate silent agonists
same,Potentiated response,human α7 nAChR,22.9 ± 5.8
same,Relative response,human α7 nAChR,0.010 ± 0.002
"CC[N+]1(CC)CCN(c2cccc(F)c2)CC1.[I-] [Compound 2s, 1,1-diethyl-4-(3-fluorophenyl)piperazin-1-ium iodide]",functional classification at α7 nAChR,human α7 nAChR,no significant activity as either partial agonists or as silent agonists
same,Potentiated response,human α7 nAChR,0.2 ± 0.1
same,PAM-dependent currents relative to ACh,human α7 nAChR,0.2 fold
same,Relative response,human α7 nAChR,0.061 ± 0.089
"CC[N+]1(CC)CCN(c2ccc(C(N)=O)cc2)CC1.[I-] [Compound 2t, 4-(4-carbamoylphenyl)-1,1-diethylpiperazin-1-ium iodide]",functional classification at α7 nAChR,human α7 nAChR,candidate silent agonists
same,Potentiated response,human α7 nAChR,43.9 ± 8.5
same,Relative response,human α7 nAChR,0.065 ± 0.009
"CC[N+]1(CC)CCN(c2cccc(C(N)=O)c2)CC1.[I-] [Compound 2u, 4-(3-carbamoylphenyl)-1,1-diethylpiperazin-1-ium iodide]",functional classification at α7 nAChR,human α7 nAChR,candidate silent agonists
same,Potentiated response,human α7 nAChR,50.7 ± 8.5
same,Relative response,human α7 nAChR,0.056 ± 0.022
"CC[N+]1(CC)CCC(Nc2ccccc2)CC1.[I-] [Compound 6, 1,1-diethyl-4-(phenylamino)piperidinium iodide]",functional classification at α7 nAChR,human α7 nAChR,no channel activation within experimental error
same,Potentiated response,human α7 nAChR,5.6 ± 2.1
same,PAM-dependent response compared to the parent diEPP,human α7 nAChR,enhanced PAM-dependent responses
same,Relative response,human α7 nAChR,0.002 ± 0.004
"CC[N+]1(CC)CCC(=Cc2ccccc2)CC1.[I-] [Compound 8, 4-benzylidene-1,1-diethylpiperidinium iodide]",Potentiated response,human α7 nAChR,9.9 ± 3.1
same,PAM-dependent response compared to the parent diEPP,human α7 nAChR,enhanced PAM-dependent responses
same,Relative response,human α7 nAChR,0.071 ± 0.027
